The source of these data is patent EP0300423A2, “Cephalosporin compound, method of its production and composition for prevention and treatment of bacterial infectious diseases” (Kyoto Pharmaceutical Industries, Ltd., priority 1987, dated 1989).

In brackets after ≈: the same amount, converted by molar mass. Structures can show the parent of a compound that is named as a salt.

Data set [1] concerns Staphylococcus aureus Smith. Description: Antibacterial activity test, minimum inhibitory concentration. Type of data set: cell-based.
The next data set has as its system Escherichia coli NIH. The data set is described as above. Type of data set: cell-based.
A short description of data set [2]: Acute toxicity test, oral administration. To be noted: mouse, in vivo, male ICR mice, 5 weeks in age, n = 3, orally administered as aqueous solution in distilled water, read-out: LDso value. The method, then:
The acute toxicity of the orally administered cephalosporin derivative of this invention in mice was determined. The test is summarized as follows:
Subject animals: Male mice (ICR, at 5 weeks in age), n = 3
Method of administration: The cephalosporin derivative as obtained in Example 3 below was dissolved in distilled water, and this aqueous solution was orally administered.

On to `O=C(O)C1=C(CSc2ncns2)CS[C@@H]2[C@H](NC(=O)[C@H](O)c3ccccc3)C(=O)N12` [Example 1, 7-D-(-)Mandelamido-3-(1,2,4-thiadiazol-5-yl)thiomethyl-3-cephem-4-carboxylic acid], for which the MIC turned out to be 0.2 µg/mL (≈ 0.431 µM) in data set [1] and 0.39 µg/mL (≈ 0.84 µM) against Escherichia coli NIH.

Consider `N[C@@H](C(=O)N[C@@H]1C(=O)N2C(C(=O)O)=C(Cl)CS[C@H]12)c1ccccc1` [Cefaclor, cefaclor, reference compound], for which the MIC was found to be 1.56 µg/mL (≈ 4.24 µM) in data set [1] and 0.78 µg/mL (≈ 2.12 µM) in the data set with Escherichia coli NIH.

In the case of `C[C@H](N)C(=O)O[C@@H](C(=O)N[C@@H]1C(=O)N2C(C(=O)OCOC(=O)C(C)(C)C)=C(CSc3ncns3)CS[C@H]12)c1ccccc1` [Example 3, Pivaloyloxymethyl 7-[D-O-(L-alanyl)mandelamido]-3-[(1,2,4-thiadiazol-5-yl)thiomethyl]-3-cephem-4-carboxylate hydrochloride], the LD50 in data set [2] was less than 5000 mg/kg.

As usually defined, the MIC is the lowest concentration that inhibits growth of the organism. High values mean a need for much substance, low ones inhibition by little substance.
